Laboratory results published in ChEMBL document CHEMBL1201862, “PubChem BioAssay data set” (2004).
Active and inactive are the calls of the source.

Tests used:
[1] = target: Aryl hydrocarbon receptor (Homo sapiens, UniProt P35869); assay: Luminescence-based cell-based high throughput dose response assay for activators of the Aryl Hydrocarbon Receptor (AHR). [Related pubchem assays: 2796 (Primary screen (AHR activators in singlicate)), 2845 (Confirmation screen (AHR activators in triplicate)), 434939 (Counterscreen (PXR activators in triplicate)), 2804 (Summary (AHR activators))]; format: ADME
Sequence of Aryl hydrocarbon receptor (P35869 whole entry): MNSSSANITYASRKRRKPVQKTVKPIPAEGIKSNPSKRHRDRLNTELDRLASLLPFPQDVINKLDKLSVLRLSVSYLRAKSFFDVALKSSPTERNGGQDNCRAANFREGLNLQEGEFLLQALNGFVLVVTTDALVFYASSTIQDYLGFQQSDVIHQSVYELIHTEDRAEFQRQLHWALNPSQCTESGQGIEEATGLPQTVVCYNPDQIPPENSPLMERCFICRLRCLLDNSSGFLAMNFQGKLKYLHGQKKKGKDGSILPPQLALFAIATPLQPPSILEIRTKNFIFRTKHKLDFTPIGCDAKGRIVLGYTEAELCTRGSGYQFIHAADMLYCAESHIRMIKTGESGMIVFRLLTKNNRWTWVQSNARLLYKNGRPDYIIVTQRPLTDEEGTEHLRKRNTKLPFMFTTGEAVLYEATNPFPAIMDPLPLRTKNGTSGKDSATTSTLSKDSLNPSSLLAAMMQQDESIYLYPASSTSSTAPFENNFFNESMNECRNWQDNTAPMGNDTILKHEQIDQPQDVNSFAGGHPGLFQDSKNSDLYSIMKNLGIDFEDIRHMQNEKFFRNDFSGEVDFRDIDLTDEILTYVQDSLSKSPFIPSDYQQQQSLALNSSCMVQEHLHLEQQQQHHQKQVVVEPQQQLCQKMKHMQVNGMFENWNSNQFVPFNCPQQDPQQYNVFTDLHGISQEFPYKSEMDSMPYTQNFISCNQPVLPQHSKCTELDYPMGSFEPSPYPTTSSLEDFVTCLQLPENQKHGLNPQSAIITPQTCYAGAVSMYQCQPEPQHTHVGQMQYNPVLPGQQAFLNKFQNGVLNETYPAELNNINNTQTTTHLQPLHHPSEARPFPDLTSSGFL

[2] = target: T1, Bcl-2-related protein A1 (Mus musculus, UniProt Q07440); assay: Bfl-1 binding inhibitors, SAR follow-up, biochemical, fluorescence polarization (AID 1070)
T1 sequence (Q07440 whole entry): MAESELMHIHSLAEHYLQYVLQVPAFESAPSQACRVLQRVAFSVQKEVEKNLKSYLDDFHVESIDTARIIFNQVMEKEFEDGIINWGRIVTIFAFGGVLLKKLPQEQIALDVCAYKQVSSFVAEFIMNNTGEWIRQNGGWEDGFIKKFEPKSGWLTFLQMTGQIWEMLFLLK

[3] = target: T1, Bcl-2-related protein A1; assay: Bfl-1 inhibitors blocking BH3 peptide binding, confirmation, biochemical, TR-FRET, mouse Bfl-1 (AID 621);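 further: TR-FRET binding of GST-Bfl-1 to FITC-labelled Bid peptide via terbium antibody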
[4] = target: Glyceraldehyde-3-phosphate dehydrogenase (Homo sapiens, UniProt P04406)
Sequence of Glyceraldehyde-3-phosphate dehydrogenase (P04406 whole entry): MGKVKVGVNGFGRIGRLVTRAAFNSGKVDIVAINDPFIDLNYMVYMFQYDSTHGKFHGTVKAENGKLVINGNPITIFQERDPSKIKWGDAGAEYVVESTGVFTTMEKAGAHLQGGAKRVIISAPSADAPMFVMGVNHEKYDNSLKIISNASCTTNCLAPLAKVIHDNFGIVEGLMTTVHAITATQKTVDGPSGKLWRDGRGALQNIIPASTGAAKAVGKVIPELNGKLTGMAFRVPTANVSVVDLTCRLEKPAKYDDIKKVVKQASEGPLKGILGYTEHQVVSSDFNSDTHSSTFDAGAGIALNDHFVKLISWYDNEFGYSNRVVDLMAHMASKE

[5] = target: Sphingosine 1-phosphate receptor 2 (Homo sapiens, UniProt O95136); assay: Dose Response Cell Based Assay for Antagonists of the S1P2 Receptor. [Related pubchem assays: 856, 736 ]; format: functional
Sequence of Sphingosine 1-phosphate receptor 2 (O95136 whole entry): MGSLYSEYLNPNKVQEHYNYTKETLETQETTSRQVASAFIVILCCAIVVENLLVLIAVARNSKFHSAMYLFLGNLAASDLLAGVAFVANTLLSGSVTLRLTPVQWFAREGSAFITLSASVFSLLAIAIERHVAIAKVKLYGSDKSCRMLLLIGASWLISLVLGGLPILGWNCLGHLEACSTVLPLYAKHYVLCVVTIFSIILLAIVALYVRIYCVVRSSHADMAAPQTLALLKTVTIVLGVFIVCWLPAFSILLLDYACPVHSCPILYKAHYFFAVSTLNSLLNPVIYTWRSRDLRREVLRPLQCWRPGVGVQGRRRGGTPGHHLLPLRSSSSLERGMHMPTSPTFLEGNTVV

[6] = target: Mitogen-activated protein kinase 10 (Homo sapiens, UniProt P53779); assay: Dose response biochemical screening assay for inhibitors of c-Jun N-Terminal Kinase 3 (JNK3). [Related pubchem assays: 746 ]
Sequence of Mitogen-activated protein kinase 10 (P53779 whole entry): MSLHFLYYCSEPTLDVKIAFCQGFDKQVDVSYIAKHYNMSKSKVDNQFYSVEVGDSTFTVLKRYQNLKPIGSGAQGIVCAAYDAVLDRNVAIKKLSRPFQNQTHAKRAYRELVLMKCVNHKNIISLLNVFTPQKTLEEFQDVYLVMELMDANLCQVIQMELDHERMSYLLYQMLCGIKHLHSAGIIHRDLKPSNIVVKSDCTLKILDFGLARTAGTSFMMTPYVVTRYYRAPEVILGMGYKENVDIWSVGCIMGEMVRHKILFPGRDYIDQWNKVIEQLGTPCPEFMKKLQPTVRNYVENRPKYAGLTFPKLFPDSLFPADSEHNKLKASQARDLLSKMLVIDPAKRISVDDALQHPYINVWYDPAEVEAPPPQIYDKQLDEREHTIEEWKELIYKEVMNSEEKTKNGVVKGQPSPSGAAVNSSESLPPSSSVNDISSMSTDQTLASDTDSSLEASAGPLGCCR

[7] = Luminescence Cell-Based Dose Confirmation HTS to Identify Inhibitors of Platelet Dense Granule Release. [Related pubchem assays: 1663 (Primary HTS), 1678 (Summary of Project)]; format: functional
[8] = target: E3 ubiquitin-protein ligase Mdm2 (Homo sapiens, UniProt Q00987); assay: enhancers of MDM2-luciferase reporter signal, concentration-effect titration, project on inhibitors of MDM2 ubiquitin ligase, cellular assay, luminescent readout, 384-well plate format (AID 1394); format: functional;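 further: MDM2 E3 inhibitors raise luminescence so EC50 is for signal enhancement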
Sequence of E3 ubiquitin-protein ligase Mdm2 (Q00987 whole entry): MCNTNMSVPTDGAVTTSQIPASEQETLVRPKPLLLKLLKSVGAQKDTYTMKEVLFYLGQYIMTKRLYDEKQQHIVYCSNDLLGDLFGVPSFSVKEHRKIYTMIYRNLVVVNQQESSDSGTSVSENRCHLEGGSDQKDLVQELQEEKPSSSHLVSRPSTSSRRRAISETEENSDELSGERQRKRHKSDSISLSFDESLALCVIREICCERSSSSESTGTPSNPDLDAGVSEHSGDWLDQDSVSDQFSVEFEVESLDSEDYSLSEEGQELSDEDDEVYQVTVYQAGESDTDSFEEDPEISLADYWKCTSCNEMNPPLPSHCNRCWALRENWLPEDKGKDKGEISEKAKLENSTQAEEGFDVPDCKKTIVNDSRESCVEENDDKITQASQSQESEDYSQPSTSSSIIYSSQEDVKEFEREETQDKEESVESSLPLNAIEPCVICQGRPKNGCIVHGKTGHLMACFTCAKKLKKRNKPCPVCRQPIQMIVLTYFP

[9] = target: Luciferin 4-monooxygenase (Photinus pyralis, UniProt P08659); assay: firefly luciferase enzyme inhibitors, dose response, biochemical, luminescence (AID 1891)
Sequence of Luciferin 4-monooxygenase (P08659 whole entry, the tested form may be a part): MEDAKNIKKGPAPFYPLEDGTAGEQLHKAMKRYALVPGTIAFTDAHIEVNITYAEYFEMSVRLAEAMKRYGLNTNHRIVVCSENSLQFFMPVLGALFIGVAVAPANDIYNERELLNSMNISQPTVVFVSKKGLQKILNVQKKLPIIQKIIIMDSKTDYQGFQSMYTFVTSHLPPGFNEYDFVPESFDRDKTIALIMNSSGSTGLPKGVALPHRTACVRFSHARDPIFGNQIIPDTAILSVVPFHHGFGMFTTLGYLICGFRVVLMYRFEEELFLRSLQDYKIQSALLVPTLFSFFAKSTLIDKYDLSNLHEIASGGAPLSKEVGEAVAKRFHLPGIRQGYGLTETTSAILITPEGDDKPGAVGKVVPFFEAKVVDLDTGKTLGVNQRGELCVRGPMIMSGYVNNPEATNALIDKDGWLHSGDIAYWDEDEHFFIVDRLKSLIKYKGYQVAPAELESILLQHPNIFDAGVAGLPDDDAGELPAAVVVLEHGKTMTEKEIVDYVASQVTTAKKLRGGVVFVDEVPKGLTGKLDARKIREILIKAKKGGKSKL

[10] = target: T2, Oxysterols receptor LXR-beta (Homo sapiens, UniProt P55055); assay: LXR agonists, Gal4 luciferase reporter, dose response, counter-screen for ssDAF-12 agonist project, cell-based, luminescence, HEK293, S. stercoralis campaign (AID 720737); format: functional; conditions: read-out: IC50 (the source's name)
T2 sequence (P55055 whole entry): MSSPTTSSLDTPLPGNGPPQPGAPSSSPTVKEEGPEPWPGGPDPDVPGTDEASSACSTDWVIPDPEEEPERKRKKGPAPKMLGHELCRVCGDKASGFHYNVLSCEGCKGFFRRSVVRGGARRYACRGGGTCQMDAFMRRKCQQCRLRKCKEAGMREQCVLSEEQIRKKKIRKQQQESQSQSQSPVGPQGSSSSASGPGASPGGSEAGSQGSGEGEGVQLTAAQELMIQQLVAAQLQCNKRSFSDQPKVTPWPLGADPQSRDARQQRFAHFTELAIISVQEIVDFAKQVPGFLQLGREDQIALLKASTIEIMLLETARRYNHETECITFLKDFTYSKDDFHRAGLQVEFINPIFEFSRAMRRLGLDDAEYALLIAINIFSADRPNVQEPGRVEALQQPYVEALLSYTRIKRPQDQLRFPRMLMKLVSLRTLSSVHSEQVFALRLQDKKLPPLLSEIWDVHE

[11] = Luminescence-based cell-based high throughput dose response assay to identify activators of the DAF-12 from the parasite S. stercoralis (ssDAF-12).; format: functional
[12] = cytotoxicity in HEK-293T cells, dose response, cytotoxicity control for TCR NF-kB inhibitor project, luminescence, T-cell screen hits (AID 489026); format: functional, cell-based;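 further: cells exposed to compound about 14 hours before the viability readout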
[13] = cytotoxicity toward DRD oncogenic fibroblasts, dose response, cell-based, non-viral oncogenic, luminescence (AID 1934); format: functional; conditions: Homo sapiens
[14] = system: BJ; assay: cytotoxicity toward Ras-transformed BJeLR fibroblasts, dose response, cell-based, alamar blue fluorescence, cherrypicked samples (AID 2631); format: functional; conditions: Homo sapiens;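 further: confirmatory dose-response assay in RAS-dependent BJ fibroblasts engineered with TERT, LT and ST, with cytotoxicity read by fluorescence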
[15] = Luminescence-based dose response cell-based high throughput screening assay for cytotoxic compounds using the IEC-6 intestinal epithelial cell line. [Related pubchem assays: 1858 (Summary AID.), 1825 (Counterscreen.), 1907 (Confirmation screen.)]; format: functional
[16] = system: BJ; assay: cells; format: functional, cell-based; conditions: Homo sapiens
[17] = target: Paired box protein Pax-8 (Homo sapiens, UniProt Q06710); assay: inhibitors of PAX8-driven TPO luciferase reporter, dose response, RMG-I cells, cherry-pick (AID 687027); format: functional, cell-based;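 further: luciferase reporter driven by Pax8 target thyroperoxidase promoter measured by SteadyGlo luminescence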
Sequence of Paired box protein Pax-8 (Q06710 whole entry): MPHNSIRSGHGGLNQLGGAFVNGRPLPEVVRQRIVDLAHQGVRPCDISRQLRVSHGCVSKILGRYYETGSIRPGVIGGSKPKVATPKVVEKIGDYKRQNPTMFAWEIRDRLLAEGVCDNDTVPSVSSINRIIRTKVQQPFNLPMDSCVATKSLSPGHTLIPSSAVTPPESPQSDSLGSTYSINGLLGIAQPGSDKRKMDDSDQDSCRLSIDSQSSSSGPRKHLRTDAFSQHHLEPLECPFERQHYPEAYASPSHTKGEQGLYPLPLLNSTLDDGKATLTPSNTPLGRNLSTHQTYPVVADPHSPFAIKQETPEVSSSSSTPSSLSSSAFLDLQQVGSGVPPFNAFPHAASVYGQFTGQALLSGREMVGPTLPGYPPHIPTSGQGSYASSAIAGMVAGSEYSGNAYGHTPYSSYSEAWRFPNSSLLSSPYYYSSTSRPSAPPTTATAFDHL

[18] = system: BJ; assay: cytotoxicity toward BJ-TERT fibroblasts, dose response, cell-based, RAS-independent, luminescence (AID 1933); format: functional; conditions: Homo sapiens
[19] = Luminescence Cell-Based Dose Response to Identify Activators of Luciferase Translation or Activity in H4-C Neuroglioblastoma Cells. [Related pubchem assays: 1829 (Project Summary), 1814 (Primary HTS)]; format: functional
[20] = Luminescence Cell-Based Dose Response HTS to Identify Activators of Luciferase Translation or Activity in H4 […] Cells. [Related pubchem assays: 1829 (Project Summary), 1814 (Primary HTS)]; format: functional
[21] = system: H4; assay: Luminescence Cell-Based Dose Response HTS to Identify Activators of 5'UTR Stem-Loop Driven Prion Protein mRNA Translation in H4 Neuroglioblastoma Cells. [Related pubchem assays: 1829 (Project Summary), 1814 (Primary HTS)]; format: functional; conditions: Homo sapiens
[22] = Luminescence Cell-Based Dose Response to Identify Activators of 5'UTR Stem-Loop Driven Prion Protein mRNA Translation in H4-C Neuroglioblastoma Cells. [Related pubchem assays: 1829 (Project Summary), 1814 (Primary HTS)]; format: functional
[23] = Luminescence Cell-Based Dose Confirmation HTS to Identify Activators of 5'UTR Stem-Loop Driven Alpha-Synuclein mRNA Translation in H4 Neuroglioblastoma Cells. [Related pubchem assays: 1829 (Project Summary), 1814 (Primary HTS)]; format: functional
[24] = Luminescence Cell-Based Dose Confirmation to Identify Activators of 5'UTR Stem-Loop Driven Alpha-Synuclein mRNA Translation in H4 Neuroglioblastoma Cells. [Related pubchem assays: 1829 (Project Summary), 1814 (Primary HTS)]; format: functional
[25] = P. falciparum Dd2 growth inhibitors, dose response, SYBR Green, dry powder samples, set 9 (AID 1159568); format: functional, cell-based
[26] = P. falciparum 3D7-ScDHODH growth inhibitors, dose response, SYBR Green, dry powder samples (AID 1159570); format: functional, cell-based;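 further: parasite growth measured after 72 hours of compound exposure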
[27] = P. falciparum Dd2 growth inhibitors, dose response, SYBR Green, cherry-picked samples (AID 1159567); format: functional, cell-based
[28] = P. falciparum Dd2 growth inhibitors, dose response, SYBR Green, dry powder samples (AID 1159566); format: functional, cell-based;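 further: potency for growth inhibition with lower SYBR green DNA signal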
[29] = P. falciparum ATP4 D1247Y mutant growth inhibitors, dose response, NITD609-resistant line, SYBR Green, dry powder (AID 1159571); format: functional, cell-based;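 further: parasites synchronized at ring stage by sorbitol before testing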
[30] = P. falciparum Dd2 blood-stage growth inhibition, dose response, SYBR Green fluorescence, erythrocytes, dry powder, set 2 (AID 1159574); format: functional, cell-based
[31] = target: Phospholipase D2 (Homo sapiens, UniProt O14939); assay: PLD2 Cellular Concentration Response Study.; format: functional
Sequence of Phospholipase D2 (O14939 whole entry): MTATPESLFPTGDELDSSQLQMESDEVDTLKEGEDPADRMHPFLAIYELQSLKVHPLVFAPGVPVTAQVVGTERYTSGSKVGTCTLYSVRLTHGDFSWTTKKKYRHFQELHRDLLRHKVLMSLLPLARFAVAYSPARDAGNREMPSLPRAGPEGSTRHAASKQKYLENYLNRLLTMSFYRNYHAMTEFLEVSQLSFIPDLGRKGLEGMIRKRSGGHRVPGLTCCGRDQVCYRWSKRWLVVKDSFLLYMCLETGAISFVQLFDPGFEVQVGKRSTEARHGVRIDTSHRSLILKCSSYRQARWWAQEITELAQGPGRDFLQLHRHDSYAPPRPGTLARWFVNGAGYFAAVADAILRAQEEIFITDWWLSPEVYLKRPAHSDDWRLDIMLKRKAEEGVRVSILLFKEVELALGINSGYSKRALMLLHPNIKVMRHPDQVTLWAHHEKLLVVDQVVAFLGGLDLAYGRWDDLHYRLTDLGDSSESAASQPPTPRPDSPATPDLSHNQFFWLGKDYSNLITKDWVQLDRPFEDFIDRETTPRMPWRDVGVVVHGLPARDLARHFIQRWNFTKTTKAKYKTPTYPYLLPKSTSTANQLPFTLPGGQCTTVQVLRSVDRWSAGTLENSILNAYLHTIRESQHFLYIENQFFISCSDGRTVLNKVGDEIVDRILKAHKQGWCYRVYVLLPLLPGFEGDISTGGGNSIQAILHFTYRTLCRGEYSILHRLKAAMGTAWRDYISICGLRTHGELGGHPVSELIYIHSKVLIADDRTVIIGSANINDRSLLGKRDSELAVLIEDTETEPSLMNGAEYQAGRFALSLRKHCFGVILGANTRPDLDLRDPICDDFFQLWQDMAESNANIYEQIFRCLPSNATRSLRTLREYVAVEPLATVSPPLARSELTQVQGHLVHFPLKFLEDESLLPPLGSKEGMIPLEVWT

[32] = target: Phospholipase D1 (Homo sapiens, UniProt Q13393); assay: PLD1 Cellular Concentration Response Study.; format: functional
[33] = Glucagon-like peptide 1 release potency, NCI-H716 cell line, dose-response, half-maximal inhibitory concentration (AID 1117344); format: functional, cell-based
[34] = Dose-response inhibition of insulin secretion in a rat insulinoma line at 5 mM glucose (AID 1117331); format: functional, cell-based; conditions: INS-1E
[35] = half-maximal inhibitory concentration for glucagon-like peptide-1 release, STC-1 cell line, dose-response (AID 1117345); format: functional, cell-based
[36] = Luminescence Cell-Based Dose Retest to Confirm Inhibitors of Cancer Stem Cells. [Related pubchem assays (depositor defined):AID2717, AID2721]; format: functional, Homo sapiens; conditions: Homo sapiens

For `CCC(=O)Nc1cc(OC)c(NC(=O)c2ccccc2)cc1OC`, the EC50 [1] was 1.85 µM (active).
For `Cc1cccc(N2CCN(C3=C(Cl)C(=O)N(c4ccc(Cl)c(Cl)c4)C3=O)CC2)c1C`, the IC50 [2] was > 100 µM (not active), the IC50 [3] was > 100 µM (not active) and the IC50 [4] was > 100 µM (not active).
For `O=C(Nc1ccc(F)cc1)c1cccs1`, the IC50 [5] was > 30 µM (not active).
In the case of `C/C(NC1CCCC1)=C(/C#N)C(N)=O`, the IC50 [6] is reported as 33.3 µM (not active).
For `Cc1nnc(SCCN2CCOCC2)c2nn(-c3ccccc3F)c(C)c12`, the EC50 [7] was > 112 µM (not active), the EC50 [8] was 2.43 µM (not active) and the EC50 [9] was > 112 µM (not active).
For `CC(=O)NC1(c2ccccc2)CCN(c2cc(C)nc(-c3ccccc3)n2)CC1`, the EC50 [10] was > 67.5 µM (inactive) and the IC50 [11] was > 67.5 µM (inactive).
With `COc1ccc(/C=N/NC(=O)c2[nH]c3ccc(Br)cc3c2-c2ccccc2)cc1` the IC50 [12] was > 80 µM (inactive), the EC50 [13] was 0.361 µM (active) and the EC50 [14] was 0.0886 µM (active). For the same compound, the IC50 [15] was 0.296 µM (active), the EC50 [16] was 34.8 µM (inconclusive) and the AC50 [17] was < 0.5 µM (active). For the same compound, the EC50 [18] was < 0.12 µM (inconclusive).
In the case of `COc1cccc(NC(=O)C(=O)N/N=C(\C)CC(=O)Nc2ccc(NC(C)=O)cc2)c1`, the EC50 [19] is reported as > 12 µM (not active), the EC50 [20] is reported as 9.31 µM (active) and the EC50 [21] is reported as 25.6 µM (active). The EC50 [22] was > 12 µM (not active), the EC50 [23] was < 0.1 µM (active) and the EC50 [24] was 1.25 µM (active).
With `O=C(C1CCOCC1)N1C[C@@H]2[C@H](c3ccccc31)[C@H](CO)N2C(=O)Cc1ccccn1` the AC50 [25] was 22.9 µM (active).
In the case of `O=C(c1ccccc1F)N1CC(=O)N2[C@H](CO)[C@H](c3ccc(-c4cccnc4)cc3)[C@H]2C1`, the AC50 [26] is reported as 0.197 µM (active), the AC50 [27] is reported as < 0.3 µM (active) and the AC50 [28] is reported as 0.129 µM (active). For the same compound, the AC50 [29] was 0.148 µM (active) and the AC50 [30] was 0.427 µM (active).
For `O=C(NCCN1CCC2(CC1)C(=O)NCN2Cc1ccccc1Br)c1ccc2ccccc2c1`, the IC50 [31] was 0.16 µM (active) and the IC50 [32] was 1.68 µM (active).
For `O=C1Nc2ccc(Cl)cc2[C@@](C#CC2CC2)(C(F)(F)F)O1` [EFAVIRENZ], the IC50 [33] was 21.2 µM (inactive), the IC50 [34] was 3.87 µM (active) and the IC50 [35] was 2.48 µM (active). For the same compound, the AC50 [36] was 6.38 µM (active).
